# From US20230091810A1, “FIRST-IN-CLASS OF SHMT2 AND MTHFD2 INHIBITORS AS ANTITUMOR AGENTS” (Duquesne University of the Holy Spirit, priority 2017, published 2023)
# Read-outs that look alike come from different tables or passages of the source.
# Experiments:
# HPAC (PaC) = test: proliferation assay, HPAC pancreatic cancer cells; assay type: cell-based, human; conditions: folate-/glycine-free RPMI1640 with 25 nM leucovorin, read-out: IC50s (SE) HPAC (PaC)
# Protocol: (§1) Proliferation assays were performed with engineered Chinese hamster ovary (CHO) cell lines R2 (transporter-null), PC43-10 (expresses RFC only), RT16 (FRα only), and R2/PCFT4 (PCFT only) cultured in folate-/glycine-free RPMI1640 supplemented with 25 nM leucovorin. Additional results are shown for HCT116 (colon tumor cells (CTC)), IGROV1 (epithelial ovarian cancer (EOC) cells), H460 (non-small cell lung cancer (NSCLC) cells), MIAPaCa-2 (pancreatic cancer (PaC) cells), and HPAC (PaC).
# For proliferation assays of the HCT116, H460, and MIA PaCa2 tumor cell lines, the cells were plated in 96-well plates in an identical manner to the CHO experiments, except that the maximal drug concentration was increased to 10 µM. Glycine/nucleoside protection experiments in CHO and tumor cell lines were performed in folate- and glycine-free RPMI 1640/10% dialyzed fetal bovine serum supplemented with 25 nM leucovorin without additions, or in the presence of adenosine (60 µM), thymidine (10 µM), glycine (130 µM) and/or 5-aminoimidazole-4-carboxamide (AICA) (320 µM). Growth of metabolite-treated cells was normalized to controls treated with metabolites and vehicle (i.e., DMSO) both singly and in combination. Treatments with all metabolites were performed in parallel on the same plate for a given drug.
# H460 cells = test: targeted metabolomics with [2,3,3-2H]serine tracer, H460 cells; assay type: cell-based, human; conditions: 10 µM drug
# Source text: Identification of the mitochondrial enzyme target for AGF291, AGF320, and AGF347 by targeted metabolomics. […] The cells were processed for LC-MS analyses of total serine, and of M+3, M+2, M+1, and M+0 (unlabeled) serine (where M+n represents species with n deuterium atoms). The results with the drug-treated cells were compared to those for untreated cells. For WT HCT116 cells, the results were compared to those for SHMT2 KO, MTHFD2 KO, and SHMT1 KO cells (KO of SHMT2, MTHFD2, and SHMT1, respectively (20)). For H460 cells, controls included non-targeted control (NTC) and SHMT2 shRNA knockdown (KD) cells.
# Targeted Metabolomics. Targeted metabolomics were performed essentially as previously described (47, 53). Briefly, cells (H460, HCT116, MIA PaCa-2) (1 million cells /dish for vehicle-treated samples, 1.5 million cells/dish for drug-treated samples) were seeded in triplicate 60 mm dishes in 5 ml of folate-free RPMI (contains glycine and unlabeled serine) supplemented with 10% dialyzed fetal bovine serum, 1% penicillin/streptomycin, 2 mM L-glutamine, and 25 nM leucovorin. Cells were allowed to adhere for 24 h. […] After 16 h, the cells were washed with PBS (3×), the media was replaced with folate- and serine-free culture media (containing glycine) supplemented with 10% dialyzed fetal bovine serine, 25 nM leucovorin, and [2,3,3-^2H]serine (250 µM), including 10 µM drug or DMSO vehicle. The cells were incubated for 24 h. All incubations were at 37° C. with 5% CO2. The media was aspirated, and cells were washed (3×) rapidly (< 30 s) with 5 mL ice-cold PBS; metabolism was quickly quenched with methanol:water (80:20) at -80° C. Cells were allowed to rock on dry ice for 10 min to cover the entire dish with 80:20 methanol:water (at -80° C.), then harvested by scraping and pipetting into 1.5 mL Eppendorf tubes. […] The supernatants were collected and analyzed by reversed-phase ion-pairing chromatography coupled with negative-mode electrospray-ionization high-resolution mass spectrometry on a stand-alone Orbitrap (ThermoFisher Exactive). […]
# RT16 (FR alpha) (CHO) = test: proliferation assay, RT16 CHO cells expressing FR alpha only; assay type: cell-based, Chinese hamster; conditions: folate-/glycine-free RPMI1640 with 25 nM leucovorin, 96 h, read-out: IC50s (SE) RT16 (FR alpha) (CHO)
# Protocol: as §1
# (§2) For proliferation assays with the CHO cell lines, the cells were treated with drugs (0-1 µM) in a 96-well plate (2000 cells/well) in glycine-free, nucleoside-free folate-free RPMI supplemented with 10% dialyzed fetal bovine serum, 1% penicillin/streptomycin, 2 mM L-glutamine, and 25 nM leucovorin (final volume 200 µL) over a 96 h incubation period at 37° C. with 5% CO2. The drugs were dissolved in DMSO; an equivalent amount of DMSO was added to the control (no addition) samples. To quantify viable cells, the media was removed and plates were washed once with 100 µL Dulbecco’s Phosphate-Buffered Saline (PBS), after which 100 µL PBS and 20 µL Cell Titer-blue (Promega) were added. Relative cell numbers were proportional to the fluorescence measured with a fluorescence plate reader (590 nm emission, 560 nm excitation). Background fluorescence (cell-free wells treated with Cell Titer-blue) was subtracted and these corrected values were normalized to results for cells treated in an identical manner without drugs.
# PC43-10 (RFC) (CHO) = test: proliferation assay, PC43-10 CHO cells expressing RFC only; assay type: cell-based, Chinese hamster; conditions: folate-/glycine-free RPMI1640 with 25 nM leucovorin, 96 h, drug 0-1000 nM, read-out: IC50s (SE) PC43-10 (RFC) (CHO)
# Protocol: as §1
# Cell culture and proliferation/protection assays. The HCT116 cell lines including the serine hydroxymethyltransferase (SHMT) 1, SHMT2, and methylene THF dehydrogenase 2 (MTHFD2) knockout (KO) cells were previously described (47,53). The H460 cell line was obtained from the American Type Culture Collection (Manassas, VA), whereas the MIA PaCa-2 cells were provided by Dr. Yubin Ge (Karmanos Cancer Institute). Cell lines were verified by STR analysis by Genetica DNA Laboratories (Burlington, NC). MTXRIIOua^R2-4 (i.e. R2) Chinese hamster ovary (CHO) cells were generously provided by Dr. Wayne Flintoff (University of Western Ontario) (54). From this parental R2 cell line, human RFC and PCFT were individually transfected to generate the isogenic CHO cell lines designated PC43-10 (RFC) and R2/PCFT4 (PCFT) (55-57). Human tumor cell lines were cultured in folate-free RPMI supplemented with 10% dialyzed fetal bovine serum (Sigma-Aldrich), 1% penicillin/streptomycin solution, 2 mM L-glutamine, and 25 nM leucovorin in a humidified atmosphere at 37° C. in the presence of 5% CO2 and 95% air. The CHO cell lines were cultured in alpha-minimal essential medium (alpha-MEM) supplemented with 10% bovine calf serum, 1% penicillin/streptomycin solution, and 2 mM L-glutamine. Additionally, the transfected CHO cell lines (i.e. R2/PCFT4 and PC43-10) were maintained under continuous selection with 1 mg/ml of G418.
# as §2, with “The drugs were dissolved in DMSO; an equivalent amount of DMSO was added to the control (no addition) samples.” left out
"IC50 (HPAC (PaC); Homo sapiens, HPAC) [nM]",Molecule,"dTTP isotope distribution from [2,3,3-2H]serine (H460 cells)","IC50 (RT16 (FR alpha) (CHO); Cricetulus griseus, RT16) [nM]","IC50 (PC43-10 (RFC) (CHO); Cricetulus griseus, PC43-10) [nM]",IC50 (HPAC (PaC)) [nM],IC50 (RT16 (FR alpha) (CHO)) [nM],IC50 (PC43-10 (RFC) (CHO)) [nM]
301,Nc1nc2ccn(CCCc3ccc(C(=O)N[C@@H](CCC(=O)O)C(=O)O)cc3)c2c(=O)[nH]1 [AGF291],M+1 dTTP without M+2 dTTP,117,454,,,
,Nc1nc2ccn(CCCCCc3ccc(C(=O)N[C@@H](CCC(=O)O)C(=O)O)s3)c2c(=O)[nH]1 [AGF320],M+1 dTTP without M+2 dTTP,,,190,156,> 1000
,"(2-amino-4-oxo-3,4-dihydro-5H-pyrrolo[3,2-d]pyrimidin-5-yl)butyl)-2-fluorobenzoyl)-L-glutamic acid [AGF347]",M+1 dTTP without M+2 dTTP,,,764,9.4,224
